Experimental data as given in US6890952B2, “Cyclic substituted aminomethyl compounds and medicaments comprising these compounds” (Gruenenthal GmbH, priority 2000, dated 2005).

How the values were obtained:
[1] = system: phenylquinone-induced writhing reactions; test: phenylquinone-induced writhing test in mice; format: in vivo, mouse
Protocol: The antinociceptive activity of the compounds according to the invention was investigated in mice in the phenylquinone-induced writhing test, modified by I. C. Hendershot, J. Forsaith, J. Pharmacol. Exp. Ther. 125, 237-240 (1959). Male NMRI mice weighing 25-30 g were employed for this. Groups of 10 animals per substance dose received 0.3 ml/mouse of a 0.02% aqueous solution of phenylquinone (phenylbenzoquinone, Sigma, Deisenhofen; preparation of the solution with the addition of 5% ethanol and storage in a water bath at 45° C.) administered intraperitoneally 10 minutes after intravenous administration of a compound according to the invention. The animals were placed individually in observation cages. The number of pain-induced stretching movements (so-called writhing reactions=straightening of the body with stretching of the hind extremities) was counted by means of a push-button counter for 5-20 minutes after the administration of phenylquinone.
The ED50 values of the writhing reaction were calculated by means of regression analysis (evaluation program, Martens EDV Service, Eckental) from the dose-dependent decrease in writhing reactions compared with animal groups investigated in parallel to which no compound according to the invention was administered.
The majority of the substances were tested in the standard dose of 10 mg/kg. The percentage inhibition (% inhibition) of the writhing reactions by a substance was then calculated according to the following equation: [formula] The results are summarized in table 1 for selected compounds.

[2] = male NMRI mice, standard dose of 10 mg/kg

Row | SMILES | Writhing test, mouse, i.v. decrease in writhing reactions (% inhibition) [1, 2] [%] | melting point | further results
1 | CN(C)CC1CCOc2ccccc2/C1=C\c1ccc(Cl)cc1.Cl (racemic) [Example 7c, Z-(4RS) [5-(4-Chlorobenzylidene)-2,3,4,5-tetrahydro-benzo[b]oxepin-4-yl-methyl]-dimethylamine hydrochloride] | 79 | – | –
2 | CN(C)CC1=C(Cc2cccc(O)c2)c2ccccc2OCC1.Cl [Example 6a, 3-(4-Dimethylaminomethyl-2,3-dihydro-benzo[b]oxepin-5-ylmethyl)-phenol hydrochloride] | 95 | – | –
3 | CN(C)CC1=C(Cc2ccc(Cl)cc2)c2ccccc2CC1.Cl [Example 2] | 61.5 | – | Writhing test, mouse, i.v. ED50 ([1]; male NMRI mice, 10 minutes before phenylquinone i.p.): 6.85 mg/kg
4 | CN(C)CC1=C(Cc2ccc(Cl)cc2)c2ccc(O)cc2CC1.Cl | – | 110 °C (dec.) | –
5 | CN(C)CC1=C(Cc2ccc(Cl)cc2)c2cccc(O)c2CC1.Cl [Example 4c, 5-(4-Chlorobenzyl)-6-dimethylaminomethyl-7,8-dihydro-naphth-1-ol hydrochloride] | 84 | 136 to 139 °C | –
6 | CN(C)CC1CCOc2ccccc2/C1=C/c1cccc(O)c1.Cl (racemic) [Example 6b, E-(4RS)3-(4-Dimethylaminomethyl-3,4-dihydro-2H-benzo[b]oxepin-5-ylidene-methyl)-phenol hydrochloride] | – | – | Writhing test, mouse, i.v. decrease in writhing reactions (% inhibition) ([1]; male NMRI mice, dose 21.5 mg/kg as printed in table 1): 91% [21.5 mg/kg]; inhibition of writhing reactions ([1]; mouse, i.v., dose of 2.15 mg/kg body weight as printed in text): 91%
7 | CN(C)CC1=C(Cc2ccc(Cl)cc2Cl)c2ccccc2CC1.Cl | – | 208 to 209 °C | –
8 | CN(C)CC1=C(Cc2cccc(O)c2)c2ccccc2CC1.Cl [Example 3, 3-(2-Dimethylaminomethyl-3,4-dihydro-naphth-1-ylmethyl)-phenol hydrochloride] | 93 | – | –
9 | CN(C)CC1=C(Cc2ccc(Cl)cc2)c2ccccc2CCC1.Cl | – | 240 to 243 °C | –
10 | CN(C)CC1CCCc2ccccc2/C1=C/c1ccc(Cl)cc1.Cl (racemic) [Example 4e, E-(5RS)-[5-(4-Chlorobenzylidene)-6,7,8,9-tetrahydro-5H-benzocyclohepten-6-ylmethyl]-dimethylamine hydrochloride] | 69 | – | –
11 | CN(C)CC1CCOc2ccccc2/C1=C\c1cccc(O)c1.Cl (racemic) [Example 6c, Z-(4RS)3-(4-Dimethylaminomethyl-3,4-dihydro-2H-benzo[b]oxepin-5-ylidene-methyl)-phenol hydrochloride] | 78 | – | –
